The record followed here is patent US9636317B2, “Compositions and methods of use of phorbol esters” (priority 2007, dated 2017).

What all share (assay type): in vivo, human
The subject of experiment [1] is CD3, CD4 and CD8 in peripheral blood. In words: First clinical study of HIV+ patients: CD3, CD4, CD8 levels by flow cytometry. The settings on record: for CD3 / CD4 / CD8: one value per patient. Also noted: CD4 / CD8 / CD3: unit not given here. The procedure: Twelve symptomatic patients (five males and seven females) between the ages of 35 to 52 all of whom were infected with HIV in 1995 through blood transfusion and were refractory to standard treatments for HIV were treated with TPA. Each patient was administered a weight adjusted dosage of TPA (75 μg/sq m) in 200 ml of sterile saline by i.v. over one hour. This dose was administered once daily for the first three days of treatment. Each patient was then given this dose every other day for days 4 to 18 followed by a six month rest period prior to a second course of treatment according to the same protocol.
[…] Levels of CD3, CD4 and CD8 in peripheral blood were measured using monoclonal antibodies (Becton Dickson Scientific Co., Franklin Lakes, N.J.) and a flow cytometer (B.D. Bioscience, San Diego, Calif.).
Background: A flow cytometer gives signals particle by particle.

Experiment [2] relates to CD3, CD4 and CD8 levels in peripheral blood. In words: Third clinical study of HIV+ patients: CD3, CD4, CD8 by flow cytometry. Also noted: unit not given here. The settings on record: one value per patient. How it is done:
Six patients, two males and four females between the ages of 37 and 52 years of age (Patients #13-18), were treated with TPA. Four of these patients previously received TPA treatment in combination with anti-HIV drugs in the two previous clinical studies. The two remaining patients had never been treated with TPA, but had previously received anti-HIV drug regimens. All treatments were stopped three days prior to the initiation of the third clinical study and were not resumed until 60 days after completion of the TPA treatment. The resumption of the standard HIV treatments was required by local health authorities.
Each patient in the study received 150 μg of TPA in 200 ml of sterile saline by intravenous infusion over a 1.5 to 2 hour period daily for 60 days for a total administered dose of 9.0 mg. Following completion of the 60 days of TPA therapy, these patients remained under observation for an additional 60 days though the received no further treatment.
CD3, CD4 and CD8 levels in peripheral blood were quantitated prior to starting treatment, and again at 30 and 60 days using flow cytometry and the appropriate antibodies obtained from B.D. Bioscience, San Diego, Calif. Viral load was determined using conventional methods at Kuang Ann men Hospital, Beijing, China. Patients RBC, WBC, platelets and hemoglobin levels were also measured.

A short description of experiment [3]: Reduction of periorbital hyperpigmentation. The settings on record: 6 women and 1 man. How it is done:
6 women and 1 man with excessive periorbital hyperpigmentation were treated with TPA.

The mark [4] stands for this setting: Four days after TPA, 75 μg/sq m i.v.

“And” between values parts separate entries of the source, which are not always exact repeats. Equal values may be shown once.

On to `CCCCCCCCCCCCCC(=O)O[C@@H]1[C@@H](C)[C@@]2(O)[C@@H](C=C(CO)C[C@]3(O)C(=O)C(C)=C[C@@H]23)[C@@H]2C(C)(C)[C@]12OC(C)=O` [TPA, 12-O-tetradecanoylphorbol-13-acetate], for which the CD3 in experiment [1] (After TPA (patients 09-12)) was 2920 and 1077 and 874 and 362; in experiment [1] (Forty two days after TPA), 799 and 424 and 581 and 1643 and 537 and 146 and 858 and 203; in experiment [1] (setting [4]), 427 and 941 and 1282 and 808 and 598 and 739 and 299 and 2616; in experiment [2] (Sixty Days After TPA), 902 and 2099 and 1305 and 317 and 579 and 2689; in experiment [2] (Thirty Days After TPA, 150 μg i.v. daily for 60 days), 1522 and 1865 and 1477 and 594 and 703 and 2771. Moreover, the CD4 in experiment [1] (After TPA (patients 09-12)) is 663 and 445 and 131 and 78; in experiment [1] (Forty two days after TPA), 54 and 33 and 44 and 191 and 49 and 1 and 241 and 2; in experiment [1] (setting [4]), 36 and 123 and 119 and 179 and 7 and 318 and 3 and 105; in experiment [2] (Sixty Days After TPA), 369 and 11 and 46 and 31 and 165 and 721; in experiment [2] (Thirty Days After TPA) it was 613 and 8 and 105 and 112 and 229 and 735. For the same compound, the CD8 was <2000 and 591 and 724 and 268 in experiment [1] (After TPA (patients 09-12)); 700 and 374 and 493 and 1429 and 429 and 139 and 527 and 111 in experiment [1] (Forty two days after TPA); 366 and 770 and 1330 and 570 (2×) and 355 and 180 and <2000 in experiment [1] (setting [4]); 485 and 1507 and 1220 and 246 and 290 and 1897 in experiment [2] (Sixty Days After TPA); 796 and 1408 and 1318 and 424 and 343 and 1938 in experiment [2] (Thirty Days After TPA). Moreover, the “change in CD3, CD4, or CD8 levels (summary of Table 1)” value in experiment [1] (twelve patients) is “no consistent change or correlation was observed”. Moreover, the “inflammation and hyperpigmentation in the periorbital area” value in experiment [3] was “reduced the inflammation and hyperpigmentation in the periorbital area”.
